Data from US4775692A, “2,5,6,7-tetranor-4,8-inter-m-phenylene PGI2 derivatives” (Toray Industries, Inc., priority 1986, dated 1988).
≈ marks a conversion by molar mass, not a printed value. Like-named read-outs stand apart in the source and are kept apart here.

Legend:
gastric acid secretion [1] = conditions: cited from earlier work
[2] = converted to 6-oxo PGF1α; cited from earlier work
[3] = cited from earlier work
peripheral blood vessel = conditions: cited from earlier work
platelet aggregation [4] = conditions: cited from earlier work
gastric acid secretion [5] = experiment: Inhibiting effect of gastric acid secretion, pylorus-ligated rat (Shay); format: in vivo; conditions: pylorus ligation, injected into duodenum, 5 hours
Description: (§1) Inhibiting effect of gastric acid secretion
Under anesthesia by ether, the abdomen of the rat was incised in its median and a pylorus was ligated with silk thread according to Shay (Gastroenterology 5, 43 (1945)). Simultaneously, the compound was injected into a duodenum of the rat and then the incision was closed.
Five hours later, the median-incision of the abdomen was again performed and the esophargus was ligated and then the whole stomach was removed.
The stomach was cut along a greater curvature and the contents thereof was transferred into a graduated centrifuge tube. After centrifugation at 3,000 rpm for 10 min., a volume of a gastric juice was measured and a part of its supernatant was titrated to pH 7 with 0.1N NaOH using a pH-stat (Radio meter).
The mean dose of the compounds which may reduce the volume of gastric juice (ml) and acidity (mEq/ml) of a group of five animals to 50% of that of the controls were designated respectively as ED50.

gastric acid secretion [6] = experiment: Inhibiting effect of gastric acid secretion, perfused stomach, pentagastrin-stimulated (Ghosh & Schild); format: in vivo, male SD rat; conditions: urethane-anesthetized SD rat, pentagastrin 0.05 μg/kg/min, injected through femoral vein; ratio of area index to that of PGE2
Description: as §1
A male SD rat was incised in the abdomen under anesthesia by urethane and the lumen of a stomach was perfused with a physiolosical saline solution through a double-cannula inserted into a lumen of the stomach. A pH of a draining gastric acid was monitored using a pH-meter (M. Ghosh, H. Schild, Br. J. Pharmacol. 13, 54 (1958)). The secretion of gastric acid was stimulated by a continuous infusion of the pentagastrin at a rate of 0.05 μg/kg/min. When the pH of gastric acid became stable value of about 4, the compound was injected through a femoral vein. As an index of the inhibiting effect of gastric acid secretion by the compound was calculated from the area surrounded by the curve drawn by the time course of the pH of gastric acid, from the point increase by the injection of the compound and to the point it came back to baseline. The index thus obtained was compared to that of PGE2 and a ratio therebetween was shown in Table 3, as a relative effect of the compound.

[7] = system: blood pressure of the carotid; experiment: Hypotensive effect (carotid blood pressure, anesthetized rat); format: in vivo; conditions: chloralose-anesthetized Wistar male rat, injected via catheter connected to femoral artery; read-out: Hypotensive effect ED25 (dose reducing blood pressure by 25 mmHg)
Description: A catheter was inserted to a carotid of the Wistar male rat under chloralose anesthesia. Another end of the catheter was connected to a polygraph with a pressure-transducer to detect a blood pressure of the carotid. The compound was injected via catheter connected to a femoral artery. The dose of the compound which may reduce the blood pressure in an amount of 25 mmHg was designated as ED25.

corpus of stomach = experiment: Gastric cytoprotection effect (lesion length / ulcer index after oral 0.2N NaOH); format: in vivo; conditions: 1 h, 30 min before oral 0.2N NaOH, lesion measured one hour later, read-out: Gastric cytoprotection effect ED50 (dose reducing the sore to 50% of control)
Description: Gastric cytoprotection effect
Gastric cytoprotection effect was studied according to the method by A. Robert (Gastroenterology, 77(3), 443, (1979)). Thirty min. after oral administration of the compound according to the invention, 0.2N NaOH was orally applied to the animals.
One hour later, the animals were killed under anesthesia by chloroform. The stomach was removed and fixed in a solution of 5% formalin. After fixation, the stomach was cut along the greater curvature. A total length of the lesion appearing on the corpus of stomach was then measured and served as an ulcer index.
The dose of the compound which may reduce the sore to 50% of that of the control was designated as ED50.
The gastric cytoprotection effects of the compounds according to the invention, which is thus represented by ED50, are summarized in Table 1.

platelet aggregation [8] = experiment: Inhibiting effect of platelet aggregation (ADP-induced, human platelet-rich plasma); format: cell-based; conditions: human PRP, compound added one minute before ADP
Description: Inhibiting effect of platelet aggregation
The blood taken from a human median cubital vein was centrifuged at 800 rpm for 10 min. and a supernatant thereof was used as a platelet-rich plasma (PRP). An aliquot of PRP thus obtained was put into a small tube, to which […] (ADP) was added to induce platelet aggregation. The extent of aggregation was determined by detecting a change in turbidity of the aliquot by an apparatus for measuring platelet aggregation (Rika-Denki, Tokyo). The compound was added one minute before the addition of ADP. The concentration of the compound which may reduce the platelet aggregation, 50% of the control was designated as IC50.

[9] = acidity (mEq/ml) to 50% of controls, read-out: Inhibiting effect of gastric acid secretion ED50, Acidity
[10] = volume (ml) to 50% of controls, read-out: Inhibiting effect of gastric acid secretion ED50, Volume of the gastric juice

Row | Structure (SMILES) | IC50 (platelet aggregation [8]) | gastric acid secretion-inhibiting activity (gastric acid secretion [1]) | stability in neutral aqueous solutions [2] | duration of physiological activities in vivo [3] | stability in vivo [3] | peripheral blood vessel-dilating activity (peripheral blood vessel) | platelet aggregation-inhibiting activity (platelet aggregation [4]) | ED50 (gastric acid secretion [5]; [9]) | ED50 (gastric acid secretion [5]; [10]) | Inhibiting effect of gastric acid secretion, Relative effect (PGE2 = 1) (gastric acid secretion [6]) | ED (25 mmHg) [7] | ED50 (corpus of stomach)
1 | CCCCC[C@H](O)/C=C/[C@@H]1[C@H]2C/C(=C/CCCC(=O)O)O[C@H]2C[C@H]1O [PGI2, Prostaglandin I2] |  | potent | extremely unstable | only short duration | unstable in vivo | potent | potent |  |  |  |  | 
2 | O=C(O)COc1cccc2c1O[C@H]1C[C@@H](O)[C@H](/C=C/[C@@H](O)CCC3CCCCC3)[C@@H]21 (relative stereo) [Compound 244, 17-cyclohexyl-2,5,6,7,18,19,20-heptanor-4-oxa-4,8-inter-m-phenylene PGI2] | 28 ng/mL (≈ 67.2 nM) |  |  |  |  |  |  | > 10000 µg/kg | 3500 µg/kg | 3.9 | 0.47 µg/kg | 8.52 µg/kg
3 | O=C(O)COc1cccc2c1O[C@H]1C[C@@H](O)[C@H](/C=C/[C@@H](O)CC3CCCCC3)[C@@H]21 (relative stereo) [Compound 241, 16-cyclohexyl-2,5,6,7,17,18,19,20-octanor-4-oxa-4,8-inter-m-phenylene PGI2] | 12 ng/mL (≈ 29.8 nM) |  |  |  |  |  |  | 2800 µg/kg | 1800 µg/kg | 2.1 | 0.083 µg/kg | 8.17 µg/kg
4 | CCCCC(C)[C@H](O)/C=C/[C@@H]1[C@H]2c3cccc(OCC(=O)O)c3O[C@H]2C[C@H]1O (relative stereo) [Compound 208, 16-Methyl-2,5,6,7-tetranor-4-oxa-4,8-inter-m-phenylene PGI2] | 0.47 ng/mL (≈ 1.2 nM) |  |  |  |  |  |  | 270 µg/kg | 140 µg/kg | 45 | 0.074 µg/kg | 0.92 µg/kg
5 | O=C(O)COc1cccc2c1O[C@H]1C[C@@H](O)[C@H](/C=C/[C@@H](O)C3CCCCC3)[C@@H]21 (relative stereo) [Compound 234, 15-cyclohexyl-2,5,6,7,16,17,18,19,20-nonanor-4-oxa-4,8-inter-m-phenylene PGI2] | 0.26 ng/mL (≈ 0.669 nM) |  |  |  |  |  |  | 880 µg/kg | 86 µg/kg | 4.1 | 0.34 µg/kg | 12.4 µg/kg
6 | O=C(O)COc1cccc2c1O[C@H]1C[C@@H](O)[C@H](/C=C/[C@@H](O)C3CCCC3)[C@@H]21 (relative stereo) [Compound 230, 15-cyclopentyl-2,5,6,7,16,17,18,19,20-nonanor-4-oxa-4,8-inter-m-phenylene PGI2] | 0.19 ng/mL (≈ 0.507 nM) |  |  |  |  |  |  | 880 µg/kg | 330 µg/kg | 1.4 | 0.094 µg/kg | 9.74 µg/kg

The next lines start with results.

Row | IC50 (platelet aggregation [8]) | Structure (SMILES) | gastric acid secretion-inhibiting activity (gastric acid secretion [1]) | stability in neutral aqueous solutions [2] | duration of physiological activities in vivo [3] | stability in vivo [3] | peripheral blood vessel-dilating activity (peripheral blood vessel) | platelet aggregation-inhibiting activity (platelet aggregation [4]) | ED50 (gastric acid secretion [5]; [9]) | ED50 (gastric acid secretion [5]; [10]) | Inhibiting effect of gastric acid secretion, Relative effect (PGE2 = 1) (gastric acid secretion [6]) | ED (25 mmHg) [7] | ED50 (corpus of stomach)
7 | 0.33 ng/mL (≈ 0.854 nM) | CC#CCC(C)[C@H](O)/C=C/[C@@H]1[C@H]2c3cccc(OCC(=O)O)c3O[C@H]2C[C@H]1O (relative stereo) [Compound 321, 16-Methyl-2,5,6,7-tetranor-4-oxa-18,18,19,19-tetradehydro-4,8-inter-m-phenylene PGI2] |  |  |  |  |  |  | 320 µg/kg | 120 µg/kg | 41 | 0.22 µg/kg | 0.5 µg/kg
8 | 3.5 ng/mL (≈ 8.83 nM) | O=C(O)COc1cccc2c1O[C@H]1C[C@@H](O)[C@H](/C=C/[C@@H](O)Cc3ccccc3)[C@@H]21 (relative stereo) [Compound 260, 16-phenyl-2,5,6,7,17,18,19,20-octanor-4-oxa-4,8-inter-m-phenylene PGI2] |  |  |  |  |  |  | 4500 µg/kg | 5200 µg/kg | 13 | 0.98 µg/kg | 51.4 µg/kg
9 | 0.088 ng/mL (≈ 0.23 nM) | O=C(O)COc1cccc2c1O[C@H]1C[C@@H](O)[C@H](/C=C/[C@@H](O)c3ccccc3)[C@@H]21 (relative stereo) [Compound 256, 15-phenyl-2,5,6,7,16,17,18,19,20-nonanor-4-oxa-4,8-inter-m-phenylene PGI2] |  |  |  |  |  |  | 110 µg/kg | 44 µg/kg | 7.8 | 0.1 µg/kg | 3.2 µg/kg
10 | 3.4 ng/mL (≈ 8.28 nM) | O=C(O)COc1cccc2c1O[C@H]1C[C@@H](O)[C@H](/C=C/[C@@H](O)CCc3ccccc3)[C@@H]21 (relative stereo) [Compound 263, 17-phenyl-2,5,6,7,18,19,20-heptanor-4-oxa-4,8-inter-m-phenylene PGI2] |  |  |  |  |  |  | 1300 µg/kg | 580 µg/kg | 42 | 0.23 µg/kg | 13.7 µg/kg
11 | 1.35 ng/mL (≈ 3.37 nM) | O=C(O)COc1cccc2c1O[C@H]1C[C@@H](O)[C@H](/C=C/[C@@H](O)c3cccc(F)c3)[C@@H]21 (relative stereo) [Compound 274, 15-(m-fluorophenyl)-2,5,6,7,16,17,18,19,20-nonanor-4-oxa-4,8-inter-m-phenylene PGI2] |  |  |  |  |  |  | 880 µg/kg | 260 µg/kg | 12 | 0.053 µg/kg | 9.6 µg/kg
12 | 0.74 ng/mL (≈ 1.78 nM) | O=C(O)COc1cccc2c1O[C@H]1C[C@@H](O)[C@H](/C=C/[C@@H](O)c3ccc(Cl)cc3)[C@@H]21 (relative stereo) [Compound 289, 15-(p-chlorophenyl)-2,5,6,7,16,17,18,19,20-nonanor-4-oxa-4,8-inter-m-phenylene PGI2] |  |  |  |  |  |  | 970 µg/kg | 430 µg/kg | 17 | 0.084 µg/kg | 4 µg/kg
